In patent US10772896B2, “Process for preparing a dry powder formulation comprising an anticholinergic, a corticosteroid and a beta-adrenergic” (CHIESI FARMACEUTICI S.P.A., priority 2015, dated 2020):

What was measured:
[1] = Uniformity of distribution of the active ingredients in the blend (10 samples, HPLC); type: physicochemical; details: dry powder formulation of Example 2; mean value ± RSD
Experimental: The uniformity of distribution of the active ingredients was evaluated by withdrawing 10 samples from different parts of the blend and evaluated by HPLC

[2] = Aerosol performance by Next Generation Impactor (NGI); type: physicochemical
From the text: After aerosolization of 3 doses from the inhaler device, the NGI apparatus was disassembled and the amounts of drug deposited in the stages were recovered by washing with a solvent mixture and then quantified by High-Performance Liquid Chromatography (HPLC).

[3] = Batch CY (Cyclomix), reference powder formulation of WO 2015/004243
[4] = Batch MF (mechano-fusion), reference powder formulation of WO 2015/004243
[5] = dry powder formulation of Example 2, DPI of WO 2004/012801
[6] = dry powder formulation of Example 2, DPI of WO 2004/012801, 2.0-5.0 micron
[7] = dry powder formulation of Example 2, DPI of WO 2004/012801, particle size <= 5.0 micron
[8] = dry powder formulation of Example 2, multidose DPI of WO 2004/012801
[9] = pMDI HFA solution formulation of WO 2011/076843 (reference Example 4)

Structure (SMILES) | Delivered Dose [2, 3] | Extrafine Particle Fraction < 2 μm [2, 3] | Extrafine Particle Mass < 2 μm [2, 3] | Fine Particle Fraction [2, 3] | Fine Particle Mass [2, 3] | MMAD [2, 3] | Mid Fine Particle Fraction [2, 3] | Mid Fine Particle Mass [2, 3] | Delivered Dose [2, 4] | Extrafine Particle Fraction < 2 μm [2, 4] | Extrafine Particle Mass < 2 μm [2, 4] | Fine Particle Fraction [2, 4] | Fine Particle Mass [2, 4] | MMAD [2, 4] | Mid Fine Particle Fraction [2, 4] | Mid Fine Particle Mass [2, 4] | Extrafine Particle Fraction < 1 μm [2, 5] | Extrafine Particle Fraction < 2 μm [2, 5] | Extrafine Particle Mass < 1 μm [2, 5] | Extrafine Particle Mass < 2 μm [2, 5] | further results
CCC(=O)OCC(=O)[C@@]1(OC(=O)CC)[C@@H](C)C[C@H]2[C@@H]3CCC4=CC(=O)C=C[C@]4(C)[C@@]3(Cl)[C@@H](O)C[C@@]21C [BDP, Beclometasone dipropionate] | 90.6 µg | 53.9% | 48.8 µg | 71.2% | 64.5 µg | 1.1 μm | 17.3% | 15.7 µg | 95.7 µg | 52.3% | 50.0 µg | 69.9% | 66.9 µg | 1.1 μm | 17.6% | 16.9 µg | 13.9% | 32.1% | 12.4 µg | 28.5 µg | Uniformity of distribution [1]: 100.5 (±1.8); Fine Particle Fraction [2, 5]: 49.3%; MMAD [2, 5]: 1.6 μm; Mid Fine Particle Fraction [2, 6]: 17.1%; Mid Fine Particle Mass [2, 6]: 15.2 µg; Fine Particle Mass [2, 7]: 43.6 µg; Delivered Dose [2, 8]: 88.5 µg; Delivered Dose [2, 9]: 87.8 µg; Extrafine Particle Fraction < 2 μm [2, 9]: 40.9%; Extrafine Particle Mass < 2 μm [2, 9]: 35.9 µg; Fine Particle Fraction [2, 9]: 46.0%; Fine Particle Mass [2, 9]: 40.4 µg; MMAD [2, 9]: 1.0 μm; Mid Fine Particle Fraction [2, 9]: 5.2%; Mid Fine Particle Mass [2, 9]: 4.5 µg
C[N+]1(C)CCC(OC(=O)C(O)(c2ccccc2)C2CCCC2)C1 (stereo not drawn) [GB, Glycopyrronium bromide] | 11.6 µg | 34.9% | 4.0 µg | 57.2% | 6.6 µg | 1.8 μm | 22.3% | 2.6 µg | 11.9 µg | 33.2% | 4.0 µg | 53.8% | 6.4 µg | 1.4 μm | 20.6% | 2.5 µg | 9.8% | 26.4% | 1.1 µg | 2.9 µg | Fine Particle Fraction [2, 5]: 48.1%; MMAD [2, 5]: 1.9 μm; Mid Fine Particle Fraction [2, 6]: 21.6%; Mid Fine Particle Mass [2, 6]: 2.4 µg; Fine Particle Mass [2, 7]: 5.4 µg; Delivered Dose [2, 8]: 11.1 µg; Delivered Dose [2, 9]: 10.6 µg; Extrafine Particle Fraction < 2 μm [2, 9]: 40.2%; Extrafine Particle Mass < 2 μm [2, 9]: 4.2 µg; Fine Particle Fraction [2, 9]: 45.1%; Fine Particle Mass [2, 9]: 4.8 µg; MMAD [2, 9]: 1.0 μm; Mid Fine Particle Fraction [2, 9]: 5.0%; Mid Fine Particle Mass [2, 9]: 0.5 µg
